Source: patent publication US8367727B2, “Method of using abscisic acid to treat diseases and disorders” (priority 2006, dated 2013)

System: MCP-1 promoter
Test: MCP-1 promoter luciferase reporter in 3T3-L1 pre-adipocytes
Type: cell-based
Conditions: GW9662 30 μM
Method: 3T3-L1 cells (American Type Culture Collection, Manassas, Va.) were grown in 24-well plates in DMEM high glucose medium (Invitrogen, Carlsbad, Calif.) containing 10% fetal bovine serum (FBS) until 60-70% confluence. Before transfection, the medium was changed to 1% FBS. The cells cultured in 24-well plates were co-transfected with 0.8 μg plasmid DNA and 1 ng of pRL reporter control plasmid per well using F-1 transfection reagents (Targeting Systems, Santee, Calif.) according to the manufacturer's protocol. Transfection efficiencies were determined by cotransfecting the cells with a pcDNA™ 3.1/His/lacZ control vector at 24 h. The transfected cells were then treated with either a racemic ABA mixture (12.5 μM; Sigma) or rosiglitazone (1 μM; Cayman Chemicals, Ann Arbor, Mich.) for 24 hours. Designated wells were also treated with the PPAR γ antagonist GW9662 (30 μM; Cayman Chemicals). Transfected cells were harvested in reporter lysis reagent. Luciferase activity, normalized to pRL activity in the cell extracts was determined by using the dual luciferase reporter assay system (Promega, Madison, Wis.) in a TD-20/20 Single-Tube Luminometer (Turner Biosystems, Sunnyvale, Calif.). Relative luciferase activity (RLA) was calculated as a ratio of the chemiluminescence 10 seconds after the Luciferase Assay Reagent II (Promega) was added over the chemiluminescence 10 seconds after the Stop&Glo Reagent (Promega).
To further examine the effect of ABA on MCP-1 transactivation, 3T3-L1 preadipocytes were transfected with a MCP-1 promoter luciferase reporter construct and also cotransfected with a pCMX PPAR γ expression plasmid to increase endogenous PPAR γ activity. Cells were then treated with ABA (12.5 μM), rosiglitazone (1 μM), the PPAR γ antagonist GW9662 (30 μM), or a combination of agonist and inhibitor.

Structure (SMILES): O=C(Nc1ccccc1)c1cc([N+](=O)[O-])ccc1Cl [GW9662, reference compound]
- inhibition of the effects of ABA and rosiglitazone on MCP-1 promoter activity: inhibited
